Laboratory results reported in PMC8113459, “Selective inhibition of cullin 3 neddylation through covalent targeting DCN1 protects mice from acetaminophen-induced liver toxicity” (Nature Communications, 2021).
Where “and” joins values, the source holds several entries; their conditions need not be identical. Equal entries are not always repeated.

Assays:
[1] = system: APAP-induced liver injury; test: APAP-induced liver injury: ROS assay in liver tissue; format: in vivo, mouse
Protocol: The in vivo studies were performed under animal protocols (PRO00007499) and (PRO00006638) approved by the Institutional Animal Care & Use Committee of the University of Michigan, in accordance with the recommendations in the Guide for the Care and Use of Laboratory Animals of the National Institutes of Health. C57BL/6 WT mice (~8 weeks, male, normal chow) were purchased from the Jackson Laboratory and randomly divided into eight groups (8–9 mice per group) treated (IP) as follows: phosphate-buffered saline vehicle once per day for 3 days (G1), APAP alone a single dose at 400 mg/kg on day 1 (G2), DI-1859 alone 25 mg/kg once per day for 3 days (G3), DI-1859 alone 50 mg/kg once per day for 3 days (G4), pretreatment (1 day before the APAP administration) with DI-1859 at 25 mg/kg once per day for 3 days followed with APAP at 400 mg/kg on day (G5), pretreatment (1 day before the APAP administration) with DI-1859 at 50 mg/kg once per day for 3 days followed with APAP at 400 mg/kg on day (G6), APAP a single dose at 400 mg/kg (3 h before the first DI-1859 administration) followed with DI-1859 at 25 mg/Kg once per day for 3 days (G7), and APAP a single dose at 400 mg/kg (3 h before the first DI-1859 administration) followed with DI-1859 at 50 mg/Kg once per day for 3 days (G8).
To induce acute liver injury, animals received PBS or APAP (400 mg/kg, sigma, A7085) through I.P. injection at 12 p.m. and were sacrificed 48 h afterward. To examine the protective effect of DI-1859 (groups 5 and 6), animals were I.P. injected with compound for 3 consecutive days (9 a.m. on each day, starting 1 day before APAP administration). To examine the restorative effect of DI-1859 (groups 7 and 8), animals were I.P. injected with compound 3 h after APAP administration followed by two additional treatments (9 a.m. on the next 2 days). Body weight and blood glucose level measurement, along with blood sample collection, were performed at 12 p.m. on each day.
Liver samples were homogenized in a lysis buffer and mixed with a dichlorofluorescein diacetate fluorescent probe (DCF, Sigma, D6883) to a final probe concentration of 5 µM for 1 h at 37 °C. DCF fluorescence was measured using a BioTek Synergy 2 Multi-Mode Microplate Reader (485 nm excitation and 527 nm emission).

[2] = system: HO-1 mRNA; test: RT-PCR, HO-1 mRNA in THLE2 cells; format: cell-based, human; settings: for HO-1 mRNA level relative to control: THLE2, 10 nM, replicates
Protocol: Supplementary Figure 23. DI‐1859 increases the mRNA level of NRF2 ta rge te d genes NQO1 and
HO‐1. THLE2 cells we re treated with DI‐1859 at 10 nM fo r 4, 8 and 24 h. Tr e a t e d cells were
harvested and the mRNA level of HO‐1 and NQO1 we re exa m i n e d by RT‐PCR assay. The probes
Scientific (Ann Arbor, MI). Data are presented as mean values with n = 2 independent biological […]

[3] = G3: DI-1859 25 mg/kg, qD for 3 days
[4] = G4: DI-1859 50 mg/kg, qD for 3 days
[5] = G5: DI-1859 25 mg/kg qD for 3 days, APAP 400 mg/kg 3 h after the second dose
[6] = G6: DI-1859 50 mg/kg qD for 3 days, APAP 400 mg/kg 3 h after the second dose
[7] = G7: APAP 400 mg/kg, then DI-1859 25 mg/kg 3 h after APAP and on day 2 and 3
[8] = G8: APAP 400 mg/kg, then DI-1859 50 mg/kg 3 h after APAP and on day 2 and 3

Q: Which “ROS level in mouse liver tissue, mean” value [1, 3] does the source give for `C=C(CN(C)C)C(=O)NC[C@@H](NC(=O)[C@H](Cc1nc2ccc(C(C)C)cc2s1)NC(=O)CC)C1CCCCC1` [DI-1859] here?
A: 7.034 A.U./ug

Q: What about the “ROS level normalised to the mean of G1 (vehicle), mean” value (“ROS level normalised to the mean” for short) [1, 3] of the same compound?
A: 0.9296

Q: And the “ROS level in mouse liver tissue, mean” value [1, 4]?
A: 7.229 A.U./ug

Q: And the “ROS level normalised to the mean” value [1, 4]?
A: 0.9554

Q: And the “ROS level in mouse liver tissue, mean” value [1, 5]?
A: 10.9296 A.U./ug

Q: What about the “ROS level normalised to the mean” value [1, 5] of the same compound?
A: 1.445

Q: And the “ROS level in mouse liver tissue, mean” value [1, 6]?
A: 8.337 A.U./ug

Q: What about the “ROS level normalised to the mean” value [1, 6] of the same compound?
A: 1.102

Q: What about the “ROS level in mouse liver tissue, mean” value [1, 7] of the same compound?
A: 10.4847 A.U./ug

Q: What about the “ROS level normalised to the mean” value [1, 7] of the same compound?
A: 1.3857

Q: And the “ROS level in mouse liver tissue, mean” value [1, 8]?
A: 10.3541 A.U./ug

Q: What about the “ROS level normalised to the mean” value [1, 8] of the same compound?
A: 1.368

Q: And the “effect on the level of reactive oxygen species (ROS)” value ([1]; prevention and treatment settings)?
A: effectively reduced the level of reactive oxygen species

Q: And the “HO-1 mRNA level relative to control” value ([2]; 4 h (time from row order and b199))?
A: 1.5 and 1.6

Q: What about the “HO-1 mRNA level relative to control” value ([2]; 8 h (time from row order and b199)) of the same compound?
A: 1.7 and 1.9

Q: And the “HO-1 mRNA level relative to control” value ([2]; 24 h (time from row order and b199))?
A: 2.4 and 3.9

Q: What about the “increase of HO1 mRNA level” value ([2]; THLE2 liver cells, qRT-PCR) of the same compound?
A: 3 folds
